For assay [1], the target named is T1, hnNOS (Homo sapiens, UniProt P29475).
T1 construct: expressed in transfected cells; host or cells: HEK293
Briefly: DAN assay, hnNOS expressed in transiently transfected HEK293 cells. The class given is cell-based. The following applies: HEK293 cells transiently transfected with hnNOS. An excerpt: The source of nitric oxide synthase (NOS) enzyme can be generated in several ways including induction of endogenous iNOS using cytokines and/or lipopolysaccharide (LPS) in various cell types known in the art. Alternatively, the gene encoding the enzyme can be cloned and the enzyme can be generated in cells via heterologous expression from a transient or stable expression plasmid with suitable features for protein expression as are known in the art. Enzymatic activity (nitric oxide production) is calcium independent for iNOS, while the constitutive NOS isoforms, nNOS and eNOS, become active with the addition of various cofactors added to cellular media or extract as are well known in the art. Enzymes specified in Table 1 were expressed in HEK293 cells transiently transfected with the indicated NOS isoform.
A major metabolic pathway for nitric oxide is to nitrate and nitrite, which are stable metabolites within tissue culture, tissue, plasma, and urine (S Moncada, A Higgs, N Eng J Med 329, 2002 (1993)).
The level of nitrate or nitrite in the specimen can be quantified by any method known in the art which provides adequate sensitivity and reproducibility. A variety of protocols have also been described for detecting and quantifying nitrite and nitrate levels in biological fluids by ion chromatography (e.g., S A Everett et al., J. Chromatogr. 706, 437 (1995); J M Monaghan et al., J. Chromatogr. 770, 143 (1997)), high-performance liquid chromatography (e.g., M Kelm et al., Cardiovasc. Res. 41, 765 (1999)), and capillary electrophoresis (M A Friedberg et al., J. Chromatogr. 781, 491 (1997)). […] Using 2,3-diaminonaphthalene (“DAN”), researchers have developed a rapid, quantitative fluorometric assay that can detect from 10 nM to 10 μM nitrite and is compatible with a multi-well microplate format. […]
A specimen can be processed prior to determination of nitrate or nitrite as required by the quantification method, or in order to improve the results, or for the convenience of the investigator. […]

The target of assay [2] is T2, iNOS (Rattus norvegicus, UniProt Q06518).
T2 construct: from tissue; host or cells: whole animal: male Lewis rats after LPS injection; blood samples collected
Briefly: LPS challenge (LPS induced iNOS in vivo). The following applies: for ED50: ED50 class. An excerpt: Inhibition of induction of iNOS can be quantified via the LPS challenge. Inflammation, edema, and the onset of sepsis can be observed following an injection of lipopolysaccharide (LPS), a substance produced by Gram-negative bacteria. […] (Iuvone T et al., Evidence that inducible nitric oxide synthase is involved in LPS-mediated plasma leakage in rat skin through the activation of nuclear factor-κB, Br J Pharm 1998:123 1325-1330.) As described above, the level of nitric oxide in the specimen can be quantified by correlation with plasma nitrate or nitrite levels via chemiluminescence, fluorescence, spectrophotometric assays, or by any method known in the art which provides adequate sensitivity and reproducibility, including those described above.
Male Lewis rats weighing 150-250 g are used in the studies. Rats may be fasted for up to 16 hours prior to the administration of LPS. Free access to water is maintained. Test compounds are administered with LPS or alone. Compounds are dissolved in the vehicle of 0.5% methycele/0.025% Tween 20 or 20% encapsin for oral administration. For the intravenous dosing, compounds are dissolved in saline or 0.5-3% DMSO/20% encapsin. The dosing volumes are 1-2 ml for oral and 0.3-1 ml for intravenous administration.
LPS is injected intravenously (under anesthesia) or intraperitoneally in sterile saline at a dose between 0.1-10 mg/kg in a volume not excess to 1 ml. The needle is 26-30 gauge. […] In routine screening experiments, rats are sacrificed 1.5-6 hr after LPS injection and a terminal bleeding is performed under anesthesia to collect 1-3 ml blood samples and then animals are then euthanized by CO2.

Bounds are passed on as bounds.

For orientation: EC50 means the concentration giving half of the maximal effect. High values mean weaker potency, low ones greater potency. By ED50 is commonly meant the midpoint of the dose-response relation. As usually defined, the inhibition is the share of the control response that was lost under treatment.

T1 sequence (P29475 whole entry): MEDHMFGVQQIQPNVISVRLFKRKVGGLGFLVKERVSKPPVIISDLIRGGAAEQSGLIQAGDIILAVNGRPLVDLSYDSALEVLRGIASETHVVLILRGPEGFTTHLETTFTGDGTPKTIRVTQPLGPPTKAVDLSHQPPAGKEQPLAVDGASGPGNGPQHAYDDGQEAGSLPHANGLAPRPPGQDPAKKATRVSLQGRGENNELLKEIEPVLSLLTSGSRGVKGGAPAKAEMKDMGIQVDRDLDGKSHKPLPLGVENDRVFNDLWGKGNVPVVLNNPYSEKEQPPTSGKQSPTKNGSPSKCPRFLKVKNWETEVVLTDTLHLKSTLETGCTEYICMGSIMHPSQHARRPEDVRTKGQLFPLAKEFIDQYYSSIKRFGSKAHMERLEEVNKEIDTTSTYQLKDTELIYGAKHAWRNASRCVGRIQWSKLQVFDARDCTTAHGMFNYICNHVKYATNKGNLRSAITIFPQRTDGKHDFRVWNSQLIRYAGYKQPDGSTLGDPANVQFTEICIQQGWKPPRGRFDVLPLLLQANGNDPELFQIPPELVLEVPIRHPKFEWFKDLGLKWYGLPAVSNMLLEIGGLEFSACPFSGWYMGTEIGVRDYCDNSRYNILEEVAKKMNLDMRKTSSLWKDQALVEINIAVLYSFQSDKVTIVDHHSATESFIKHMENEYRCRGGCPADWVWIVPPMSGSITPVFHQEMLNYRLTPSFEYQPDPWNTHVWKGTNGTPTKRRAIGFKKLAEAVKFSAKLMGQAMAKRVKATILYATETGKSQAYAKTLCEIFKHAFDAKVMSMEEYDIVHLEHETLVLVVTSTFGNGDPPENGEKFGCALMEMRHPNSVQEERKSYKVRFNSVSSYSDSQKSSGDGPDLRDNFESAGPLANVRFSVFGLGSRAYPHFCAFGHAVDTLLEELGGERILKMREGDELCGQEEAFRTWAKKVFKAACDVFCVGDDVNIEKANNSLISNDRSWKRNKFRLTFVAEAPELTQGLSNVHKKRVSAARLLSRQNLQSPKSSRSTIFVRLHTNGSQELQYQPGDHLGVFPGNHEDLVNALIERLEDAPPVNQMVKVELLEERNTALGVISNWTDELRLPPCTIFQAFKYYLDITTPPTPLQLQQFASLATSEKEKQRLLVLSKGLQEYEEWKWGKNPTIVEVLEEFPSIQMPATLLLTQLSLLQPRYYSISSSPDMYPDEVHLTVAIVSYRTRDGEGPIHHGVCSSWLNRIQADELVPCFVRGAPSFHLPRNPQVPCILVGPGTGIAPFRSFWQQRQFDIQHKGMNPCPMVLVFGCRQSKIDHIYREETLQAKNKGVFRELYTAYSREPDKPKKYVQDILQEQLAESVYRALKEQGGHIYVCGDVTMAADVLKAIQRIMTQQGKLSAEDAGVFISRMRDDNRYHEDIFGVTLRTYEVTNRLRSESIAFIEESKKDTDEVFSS

In assay [1], `CN(CCCNCc1ccc2c(c1)OCO2)c1nc(-n2ccnc2)ns1` [Example 2, N′-Benzo[1,3]dioxol-5-ylmethyl-N-(3-imidazol-1-yl-[1,2,4]thiadiazol-5-yl)-N-methyl-propane-1,3-diamine] displayed an EC50 of over 1000 nM. In assay [2], the median effective dose (ED50) is under 10 mg/kg.
Consider `Cc1cc(C2CCCN2C(=O)NCCc2ccc3c(c2)OCO3)nc(-n2ccnc2)n1` (stereo not drawn) [Example 4, 2-(2-Imidazol-1-yl-6-methyl-pyrimidin-4-yl)-pyrrolidine-1-carboxylic acid (2-benzo[1,3]dioxol-5-yl-ethyl)-amide], for which the EC50 in assay [1] was determined as 700 nM. In addition, the ED50 in assay [2] is under 10 mg/kg.
In turn, `Cc1cc(C2CCCN2C(=O)CNCc2ccc3c(c2)OCO3)nc(-n2ccnc2)n1` (stereo not drawn) [Example 5] came in with a concentration for a half-maximal effect (EC50) in assay [1] of over 1000 nM. In addition, in assay [2] (at 16 mg/kg), at 16 mg/kg the inhibition was 64%.

(Values after patent US7825256B2, “Inducible nitric oxide synthase dimerization inhibitors” (Kalypsys, Inc., priority 2004, dated 2010).)
